The NIST ThermoML archive (doi:10.1021/je9005823)

Legend:
[1] = xn = mol fraction of the nth substance listed; settings: 298.15 K, 101 kPa, Liquid; for viscosity: Capillary tube (Ostwald / Ubbelohde) method
[2] = refractive index (Na D-line) (dimensionless); xn = mol fraction of the nth substance listed; settings: 298.15 K, 101 kPa, Liquid
[3] = 298.15 K, 101 kPa, Liquid; for viscosity: Capillary tube (Ostwald / Ubbelohde) method
[4] = refractive index (Na D-line) (dimensionless); settings: 298.15 K; 101.33 kPa; Liquid

CC(=O)c1ccccc1 [acetophenone] + CCC(C)O
Settings | mass density, [1] [kg/m3] | refractive index, [2] | viscosity, [1] [mPa·s]
x1 = 0.1031 | 830.43 | 1.4255 | 2.345
x1 = 0.1635 | 846.12 | 1.4443 | 2.009
x1 = 0.2517 | 868.13 | 1.4669 | 1.705
x1 = 0.3422 | 889.8 | 1.4877 | 1.544
x1 = 0.4361 | 911.31 | 1.5044 | 1.461
x1 = 0.533 | 932.56 | 1.5189 | 1.46
x1 = 0.6461 | 956.27 | 1.5314 | 1.506
x1 = 0.7517 | 977.34 | 1.5367 | 1.562
x1 = 0.8675 | 999.34 | 1.5351 | 1.617
x1 = 0.9462 | 1013.72 | 1.5336 | 1.65
x1 = 1 | 1023.3 | 1.5308 | 1.678

CC(=O)c1ccccc1 [acetophenone] + CCCC(C)O
Settings | mass density, [1] [kg/m3] | refractive index, [2] | viscosity, [1] [mPa·s]
x1 = 0.0917 | 826.19 | 1.4627 | 2.767
x1 = 0.1629 | 842.36 | 1.4972 | 2.314
x1 = 0.2502 | 862.04 | 1.5257 | 1.875
x1 = 0.3416 | 882.41 | 1.5487 | 1.626
x1 = 0.4371 | 903.49 | – | 1.502
x1 = 0.5387 | 925.71 | – | 1.489
x1 = 0.6442 | 948.51 | – | 1.534
x1 = 0.7547 | 972.08 | – | 1.605
x1 = 0.8716 | 996.7 | 1.547 | 1.658
x1 = 0.949 | 1012.77 | 1.539 | 1.669
x1 = 1 | 1023.3 | 1.5308 | 1.678

CC(=O)c1ccccc1 [acetophenone] + CCCCC(C)O
x1 = 1
Settings | mass density [kg/m3] | refractive index | viscosity [mPa·s]
[1] | 1023.3 | – | 1.678
[2] | – | 1.5308 | –

CC(=O)c1ccccc1 [acetophenone] + CCCCCC(C)O
x1 = 1
Settings | mass density [kg/m3] | refractive index | viscosity [mPa·s]
[1] | 1023.3 | – | 1.678
[2] | – | 1.5308 | –

CCC(C)O (stereo unspecified) [butan-2-ol]
Settings | mass density [kg/m3] | refractive index | viscosity [mPa·s]
[3] | 802.56 | – | 3.132
[4] | – | 1.3946 | –

CCC(C)O (stereo unspecified) [butan-2-ol] + CC(=O)c1ccccc1
x2 = 0
Settings | mass density [kg/m3] | refractive index | viscosity [mPa·s]
[1] | 802.56 | – | 3.132
[2] | – | 1.3946 | –

CCCC(C)O (stereo unspecified) [pentan-2-ol]
Settings | mass density [kg/m3] | refractive index | viscosity [mPa·s]
[3] | 805.24 | – | 3.478
[4] | – | 1.4045 | –

CCCC(C)O (stereo unspecified) [pentan-2-ol] + CC(=O)c1ccccc1
x2 = 0
Settings | mass density [kg/m3] | refractive index | viscosity [mPa·s]
[1] | 805.24 | – | 3.478
[2] | – | 1.4045 | –

CC(C)O [propan-2-ol]
Settings | mass density [kg/m3] | refractive index | viscosity [mPa·s]
[3] | 780.98 | – | 2.044
[4] | – | 1.3745 | –

CC(C)O [propan-2-ol] + CC(=O)c1ccccc1
x2 = 0
Settings | mass density [kg/m3] | refractive index | viscosity [mPa·s]
[1] | 780.98 | – | 2.044
[2] | – | 1.3745 | –
